In patent US9598433B2, “Hepatitis C virus inhibitors” (BRISTOL-MYERS SQUIBB COMPANY, priority 2012, dated 2017):

Assays:
[1] = test system: HCV genotype 1a (H77 strain) replicon in HUH-7 cells; experiment: HCV replicon luciferase reporter assay, genotype 1a; format: cell-based; conditions: Hepatitis C virus, 72 h, genotype 1a replicon, 3 days incubation, read-out: LE_1a (EC50, range)
Text: (§1) An HCV replicon whole cell system was established as described by Lohmann V, Korner F, Koch J, Herian U, Theilmann L, Bartenschlager R., Science 285(5424):110-3 (1999) and modified to introduce a luciferase reporter, as first described by Krieger et al (Krieger N, Lohmann V, and Bartenschlager R, J. Virol. 75(10):4614-4624 (2001)). CDNA encoding a humanized form of the Renilla luciferase gene and a linker sequence fused directly to the 3′-end of the luciferase gene were introduced into the replicon construct using an Ascl restriction site located in core, directly upstream of the neomycin marker gene. The adaptive mutation at position 1179 (serine to isoleucine) was also introduced (Blight K J, Kolykhalov, A A, Rice, C M, Science 290(5498):1972-1974). A stable cell line constitutively expressing this HCV replicon construct was generated by first linearizing plasmid DNAs with ScaI. RNA transcripts were synthesized in vitro using the T7 MegaScript transcription kit (Ambion, Austin, Tex.) according to manufacturer's directions. In vitro transcripts of the cDNA were transfected into the human hepatoma cell line, HUH-7. […] Resulting cell lines were characterized for positive and negative strand RNA production and protein production over time.
A stable HCV replicon luciferase reporter cell line representing the genotype 1a H77 strain (Yanagi M, Purcell R H, Emerson S U, et al. Transcripts from a single full-length cDNA clone of hepatitis C virus are infectious when directly transfected into the liver of a chimpanzee. Proc Natl Acad Sci USA 1997; 94(16):8738-8743) was generated as described previously for the genotype 1b(Con1) replicon luciferase cell line. The replicon construct was modified by introducing mutations were introduced into the genes encoding the NS3 helicase domain (proline replaced by leucine at position 1496) and NS5A (serine to isoleucine at position 2204) to improve replication in cell culture.
(§2) HCV replicon luciferase assays were developed to monitor the inhibitory effects of compounds described in the disclosure on HCV genotypes 1a and 1b viral replication. HUH-7 cells, constitutively expressing the HCV replicon, were grown in Dulbecco's Modified Eagle Media (DMEM) (Gibco-BRL) containing 10% Fetal calf serum (FCS) (Sigma) and 1 mg/mL G418 (Gibco-BRL). Compounds were serially diluted 3 folds in DMSO for a twenty-point titration and subsequently transferred to sterile 384-well tissue-culture treated plates (Corning cat #3571). The plates were then seeded with 50 μL of cells at a density of 3.0×10^3 cells/well in DMEM containing 4% FCS (final DMSO concentration at 0.5%). After 3 days incubation at 37° C., cells were analyzed for Renilla Luciferase activity using the EnduRen as substrate (Promega cat #E6485). The EnduRen substrate was diluted in DMEM and then added to the plates to a final concentration of 7.5 μM. The plates were incubated for 2 hrs at 37° C. and then read immediately for 30 seconds with Viewlux Imager (PerkinElmer) using a luminescence program. To assess cytotoxicity of compounds, CC50 values were generated by multiplexing the EnduRen-containing plates with Cell Titer-Blue (Promega, cat # G8082). Cell-Titer Blue (3 μL) was added to each well and incubated for 8 hrs at 37° C. The fluorescence signal from each well was read, with an excitation wavelength at 525/10 nm and an emission wavelength of 598/10 nm, using the Viewlux Imager.
(§3) The EC50 values for compounds were calculated by using a four-parameter logistic equation: y=A+((B−A)/(1+((C/x)^D))), where A and B denotes minimal and maximal % inhibition, respectively, C is the EC50, D is the hill slope and x represents compound concentration.

[2] = test system: HCV genotype 1b (Con1) replicon in HUH-7 cells; experiment: HCV replicon luciferase reporter assay, genotype 1b; format: cell-based; conditions: Hepatitis C virus, 72 h, genotype 1b replicon, 3 days incubation, read-out: LE_1b (EC50, range)
Text: as §1, §2, §3

Row | SMILES | EC50 [1] [nM] | EC50 [2] [nM]
1 | COc1ccc2c(O[C@@H]3C[C@H]4C(=O)N[C@]5(C(=O)NS(=O)(=O)C6(C)CC6)C[C@H]5/C=C\CC[C@@H](C)O[C@@H](C)[C@H](NC(=O)OC(C)(C)C(F)(F)F)C(=O)N4C3)nc3c(c2c1)CCCO3 [Compound 2306, 1,1,1-trifluoro-2-methylpropan-2-yl ((2R,6S,7S,9R,13aS,14aR,16aS,Z)-2-((9-methoxy-2,3-dihydro-1H-pyrano[2,3-c]isoquinolin-6-yl)oxy)-7,9-dimethyl-14a-(((1-methylcyclopropyl)sulfonyl)carbamoyl)-5,16-dioxo-2,3,5,6,7,9,10,11,13a,14,14a,15,16,16a-tetradecahydro-1H-cyclopropa[i]pyrrolo[1,2-e][1,5,8]oxadiazacyclopentadecin-6-yl)carbamate] | 0.1 to 0.5 | 0.1 to 0.5
2 | CC[C@@H]1O[C@H](C)CC/C=C\[C@@H]2C[C@@]2(C(=O)NS(=O)(=O)C2(C)CC2)NC(=O)[C@@H]2C[C@@H](Oc3nc4c(c5cc(OC)ccc35)CCCO4)CN2C(=O)[C@H]1NC(=O)OC(C)(C)C(F)F [Compound 2311, 1,1-difluoro-2-methylpropan-2-yl ((2R,6S,7S,9R,13aS,14aR,16aS,Z)-7-ethyl-2-((9-methoxy-2,3-dihydro-1H-pyrano[2,3-c]isoquinolin-6-yl)oxy)-9-methyl-14a-(((1-methylcyclopropyl)sulfonyl)carbamoyl)-5,16-dioxo-2,3,5,6,7,9,10,11,13a,14,14a,15,16,16a-tetradecahydro-1H-cyclopropa[i]pyrrolo[1,2-e][1,5,8]oxadiazacyclopentadecin-6-yl)carbamate] | 0.1 to 0.5 | 0.1 to 0.5
3 | C[C@@H]1CC/C=C\[C@@H]2C[C@@]2(C(=O)NS(=O)(=O)C2(C)CC2)NC(=O)[C@@H]2C[C@@H](Oc3nc4c(c5ccccc35)CCCO4)CN2C(=O)[C@@H](NC(=O)OC(C)(C)C(F)(F)F)[C@H](C)O1 [Compound 2305, 1,1,1-trifluoro-2-methylpropan-2-yl ((2R,6S,7S,9R,13aS,14aR,16aS,Z)-2-((2,3-dihydro-1H-pyrano[2,3-c]isoquinolin-6-yl)oxy)-7,9-dimethyl-14a-(((1-methylcyclopropyl)sulfonyl)carbamoyl)-5,16-dioxo-2,3,5,6,7,9,10,11,13a,14,14a,15,16,16a-tetradecahydro-1H-cyclopropa[i]pyrrolo[1,2-e][1,5,8]oxadiazacyclopentadecin-6-yl)carbamate] | 0.51 to 1 | 0.51 to 1
4 | CC[C@@H]1O[C@H](C)CC/C=C\[C@@H]2C[C@@]2(C(=O)NS(=O)(=O)C2(C)CC2)NC(=O)[C@@H]2C[C@@H](Oc3nccc4cc(OC)c(F)cc34)CN2C(=O)[C@H]1NC(=O)OC(C)(C)C(F)F [Compound 2616] | 1.01 to 5 | 1.01 to 5
5 | CC[C@@H]1O[C@H](C)CC/C=C\[C@@H]2C[C@@]2(C(=O)NS(=O)(=O)C2(C)CC2)NC(=O)[C@@H]2C[C@@H](Oc3nc4c(c5cc(OC)ccc35)CCCO4)CN2C(=O)[C@H]1NC(=O)OC(C)(C)C(C)(F)F [Compound 2308, 3,3-difluoro-2-methylbutan-2-yl ((2R,6S,7S,9R,13aS,14aR,16aS,Z)-7-ethyl-2-((9-methoxy-2,3-dihydro-1H-pyrano[2,3-c]isoquinolin-6-yl)oxy)-9-methyl-14a-(((1-methylcyclopropyl)sulfonyl)carbamoyl)-5,16-dioxo-2,3,5,6,7,9,10,11,13a,14,14a,15,16,16a-tetradecahydro-1H-cyclopropa[i]pyrrolo[1,2-e][1,5,8]oxadiazacyclopentadecin-6-yl)carbamate] | 0.1 to 0.5 | 0.1 to 0.5
6 | COc1cc(F)cc2c(O[C@@H]3C[C@H]4C(=O)N[C@]5(C(=O)NS(=O)(=O)C6(CF)CC6)C[C@H]5/C=C\CC[C@@H](C)O[C@@H](C)[C@H](NC(=O)OC(C)(C)C(F)F)C(=O)N4C3)nccc12 [Compound 2022, 1,1-difluoro-2-methylpropan-2-yl ((2R,6S,7S,9R,13aS,14aR,16aS,Z)-2-((7-fluoro-5-methoxyisoquinolin-1-yl)oxy)-14a-(((1-(fluoromethyl)cyclopropyl)sulfonyl)carbamoyl)-7,9-dimethyl-5,16-dioxo-2,3,5,6,7,9,10,11,13a,14,14a,15,16,16a-tetradecahydro-1H-cyclopropa[i]pyrrolo[1,2-e][1,5,8]oxadiazacyclopentadecin-6-yl)carbamate] | 1.01 to 5 | 1.01 to 5
7 | COc1cc(F)cc2c(O[C@@H]3C[C@H]4C(=O)N[C@]5(C(=O)NS(=O)(=O)C6(CF)CC6)C[C@H]5/C=C\CC[C@@H](C)O[C@@H](C)[C@H](NC(=O)OC(C)(C)C(C)(F)F)C(=O)N4C3)nccc12 [Compound 2021, 3,3-difluoro-2-methylbutan-2-yl ((2R,6S,7S,9R,13aS,14aR,16aS,Z)-2-((7-fluoro-5-methoxyisoquinolin-1-yl)oxy)-14a-(((1-(fluoromethyl)cyclopropyl)sulfonyl)carbamoyl)-7,9-dimethyl-5,16-dioxo-2,3,5,6,7,9,10,11,13a,14,14a,15,16,16a-tetradecahydro-1H-cyclopropa[i]pyrrolo[1,2-e][1,5,8]oxadiazacyclopentadecin-6-yl)carbamate] | 1.01 to 5 | 0.51 to 1
8 | COc1cnc(O[C@@H]2C[C@H]3C(=O)N[C@]4(C(=O)NS(=O)(=O)C5(CF)CC5)C[C@H]4/C=C\CC[C@@H](C)O[C@@H](C)[C@H](NC(=O)OC(C)(C)C(F)F)C(=O)N3C2)c2ccccc12 [Compound 2016, 1,1-difluoro-2-methylpropan-2-yl ((2R,6S,7S,9R,13aS,14aR,16aS,Z)-14a-(((1-(fluoromethyl)cyclopropyl)sulfonyl)carbamoyl)-2-((4-methoxyisoquinolin-1-yl)oxy)-7,9-dimethyl-5,16-dioxo-2,3,5,6,7,9,10,11,13a,14,14a,15,16,16a-tetradecahydro-1H-cyclopropa[i]pyrrolo[1,2-e][1,5,8]oxadiazacyclopentadecin-6-yl)carbamate] | 1.01 to 5 | 0.51 to 1
9 | CC[C@@H]1O[C@H](C)CC/C=C\[C@@H]2C[C@@]2(C(=O)NS(=O)(=O)C2(CF)CC2)NC(=O)[C@@H]2C[C@@H](Oc3nc(OC)cc4cc(OC)ccc34)CN2C(=O)[C@H]1NC(=O)OC(C)(C)C(F)(F)F [Compound 1013, 1,1,1-trifluoro-2-methylpropan-2-yl ((2R,6S,7S,9R,13aS,14aR,16aS,Z)-2-((3,6-dimethoxyisoquinolin-1-yl)oxy)-7-ethyl-14a-(((1-(fluoromethyl)cyclopropyl)sulfonyl)carbamoyl)-9-methyl-5,16-dioxo-2,3,5,6,7,9,10,11,13a,14,14a,15,16,16a-tetradecahydro-1H-cyclopropa[i]pyrrolo[1,2-e][1,5,8]oxadiazacyclopentadecin-6-yl)carbamate] | 1.01 to 5 | 1.01 to 5
10 | CC[C@@H]1O[C@H](C)CC/C=C\[C@@H]2C[C@@]2(C(=O)NS(=O)(=O)C2CC2)NC(=O)[C@@H]2C[C@@H](Oc3nccc4cc(OC)ccc34)CN2C(=O)[C@H]1NC(=O)OC(C)(C)C(F)(F)F [Compound 1007, 1,1,1-trifluoro-2-methylpropan-2-yl ((2R,6S,7S,9R,13aS,14aR,16aS,Z)-14a-((cyclopropylsulfonyl)carbamoyl)-7-ethyl-2-((6-methoxyisoquinolin-1-yl)oxy)-9-methyl-5,16-dioxo-2,3,5,6,7,9,10,11,13a,14,14a,15,16,16a-tetradecahydro-1H-cyclopropa[i]pyrrolo[1,2-e][1,5,8]oxadiazacyclopentadecin-6-yl)carbamate] | 1.01 to 5 | 0.51 to 1
